# Where a name gives a salt, the structure may show the parent alone.
# Tests used:
# [1] = test system: bladder (urinating contraction); experiment: Period of inhibition of rhythmic bladder contraction (urinating contraction) in urethane-anesthetized rats; assay type: in vivo, rat (Wistar strain, male); conditions: rat, saline control 1.6 min
# Description: The compound of the invention was evaluated in urinating contraction of bladder by the following test method.
# A male rat (Wistar strain) was fixed on his back under urethane anesthesia (1.5 g/kg, S.C.). A tracheal cannula was inserted into the rat to respire easily, and its hypogastrium was subjected to median dissection for exposing its bladder. A small opening was made on the top of the bladder to remove urine. To the bladder was inserted a polyethylene cannula. The bladder system was made to closed system by ligating urethra and ureter.
# A physiological saline was injected into the bladder of rat at a rate of 0.05 mL/min. using a continuous injector so as to cause periodical urinating contraction. The intravesical pressure of the bladder was measured by means of a pressure transducer. The measured value was recorded on a pen-writing recorder. The compound to be tested was dissolved in a physiological saline and administered into the femoral vein using the polyethylene cannula.
# The action for relieving urinating contraction was evaluated by measuring a period of time during which the rhythimic bladder contraction was inhibited (period of contraction inhibition).
# The compounds tested were those obtained in the working examples.
# [2] = Mouse acute toxicity LD50 (i.v.), Probit method; assay type: in vivo; conditions: calculated by Probit method; for LD50: in vivo, iv
# Description: The results seen in Table 4 clearly indicate that the compound of the invention is effective in relieving urinating contraction. Further, the toxicity of the compound is set forth in Table 4 in terms of LD50 (mg/kg) calculated by Probit method.
# [3] = 6 mg/kg i.v., Hydrochloride, 6 mg/kg
# [4] = 6 mg/kg i.v., Fumarate, 6 mg/kg
Compound,LD50 [2] [mg/kg],Period of Contraction Inhibition ([1]; 8 mg/kg i.v.) [min],other results
"Cl.O=C1CN(C(CCN2CCOCC2)c2ccccc2)S(=O)(=O)c2ccccc21 (single isomer, unassigned; (+)) [Example 20[C]] [(+)-2-(3-Morpholino-1-phenylpropyl)-2H-1,2-benzothiazin-4(3H)-one 1,1-Dioxide Hydrochloride]",,,"Period of Contraction Inhibition [1, 3]: 6.0 min; Mouse LD50 ([2]; Hydrochloride): 180 mg/kg"
"O=C(O)/C=C/C(=O)O.O=C1c2ccccc2CS(=O)(=O)N1C(CCN1CCOCC1)c1ccccc1 (single isomer, unassigned; (+)) [Example 24[C]] [(+)-3-(3-Morpholino-1-phenylpropyl)-1H-2,3-benzothiazin-4(3H)-one 2,2-Dioxide Fumarate]",,,"Period of Contraction Inhibition [1, 4]: 0.7 min; Mouse LD50 ([2]; Fumarate): 167 mg/kg"
"Cl.O=C1CN(C(CCN2CCOCC2)c2ccccc2)S(=O)(=O)c2ccccc21 (single isomer, unassigned; (-)) [Example 20[B], (-)-2-(3-Morpholino-1-phenylpropyl)-2H-1,2-benzothiazin-4(3H)-one 1,1-Dioxide Hydrochloride]",140,,
"Cl.O=C1CN(C(CCN2CCOCC2)c2ccccc2)S(=O)(=O)c2ccccc21 (single isomer, unassigned; (-)) [Example 20[B]] [(-)-2-(3-Morpholino-1-phenylpropyl)-2H-1,2-benzothiazin-4(3H)-one 1,1-Dioxide Hydrochloride]",,,"Period of Contraction Inhibition [1, 3]: 0.4 min"
"O=C(O)/C=C/C(=O)O.O=C1c2ccccc2CS(=O)(=O)N1C(CCN1CCOCC1)c1ccccc1 (single isomer, unassigned; (-)) [Example 24[B]] [(-)-3-(3-Morpholino-1-phenylpropyl)-1H-2,3-benzothiazin-4(3H)-one 2,2-Dioxide Fumarate]",,,"Period of Contraction Inhibition [1, 4]: 8.5 min; Mouse LD50 ([2]; Fumarate): 32 mg/kg"
"Cl.O=C1CN(CCCN2CCC(Oc3ccccc3)CC2)S(=O)(=O)c2ccccc21 [Example 1, 2-[3-(4-Phenoxypiperidino)propyl]-2H-1,2-benzothiazin-4(3H)-one 1,1-dioxide Hydrochloride]",,,Period of Contraction Inhibition ([1]; 1 mg/kg i.v.): 2.8 min
"Cl.O=C1CN(CCCN2CCC(OCc3ccccc3)CC2)S(=O)(=O)c2ccccc21 [Example 2, 2-[3-(4-Benzyloxypiperidino)propyl]-2H-1,2-benzothiazin-4(3H)-one 1,1-Dioxide Hydrochloride]",,16,
"O=C(O)/C=C/C(=O)O.O=C1c2ccccc2CS(=O)(=O)N1CCCN1CCC(Cc2ccccc2)CC1 [Example 3, 3-[3-(4-Benzylpiperidino)propyl]-1H-2,3-benzothiazin-4(3H)-one 2,2-Dioxide Fumarate]",,2,
"Cl.O=C1CN(CCCN2CCC(Cc3ccccc3)CC2)S(=O)(=O)c2ccccc21 [Example 10, 2-[3-(4-Benzylpiperidino)propyl)-2H-1,2-benzothiazin-4(3H)-one 1,1-Dioxide Hydrochloride]",3,14.5,
"CCCCN(CCCN1CC(=O)c2ccccc2S1(=O)=O)Cc1ccccc1.Cl [Example 11, 2-[3-(N-Benzyl-N-butylamino)propyl]-2H-1,2-benzothiazin-4(3H)-one 1,1-Dioxide Hydrochloride]",37,3.9,
"Cl.O=C1CN(CCCN2CCN(C(c3ccccc3)c3ccccc3)CC2)S(=O)(=O)c2ccccc21 [Example 12, 2-[3-(4-Diphenylmethyl-1-piperazinyl)propyl]-2H-1,2-benzothiazin-4(3H)-one 1,1-Dioxide Hydrochloride]",,2.5,
"Cl.O=C1CN(CCN2CCC(Cc3ccccc3)CC2)S(=O)(=O)c2ccccc21 [Example 13, 2-[2-(4-Benzylpiperidino)ethyl]-2H-1,2-benzothiazin-4(3H)-one 1,1-Dioxide Hydrochloride]",,18,
"Cl.O=C1CN(CCCN2CCN(Cc3ccccc3)CC2)S(=O)(=O)c2ccccc21 [Example 14, 2-[3-(4-Benzyl-1-piperazinyl)propyl]-2H-1,2-benzothiazin-4(3H)-one 1,1-Dioxide Hydrochloride]",17,12.7,
"O=C1CN(CCCN2CCc3ccccc3C2)S(=O)(=O)c2ccccc21 [Example 15, 2-[3-[2-(1,2,3,4-Tetrahydroisoquinolyl)]propyl]-2H-1,2-benzothiazin-4(3H)-one 1,1-Dioxide Hydrochloride]",23,4.7,
"Cl.O=C1CN(C(CCN2CCOCC2)c2ccccc2)S(=O)(=O)c2ccccc21 (stereo not drawn) [Example 20[A], 2-(3-Morpholino-1-phenylpropyl)-2H-1,2-benzothiazin-4(3H)-one 1,1-Dioxide Hydrochloride]",> 120,,Period of Contraction Inhibition ([1]; 12 mg/kg i.v.): 9.7 min
"Cl.O=C1CN(C(CCN2CCSCC2)c2ccccc2)S(=O)(=O)c2ccccc21 (stereo not drawn) [Example 21, 2-(1-Phenyl-3-thiomorpholinopropyl)-2H-1,2-benzothiazin-4(3H)-one 1,1-Dioxide Hydrochloride]",> 100,,Period of Contraction Inhibition ([1]; 10 mg/kg i.v.): 7.0 min
"O=C(O)/C=C/C(=O)O.O=C1c2ccccc2CS(=O)(=O)N1C(CCN1CCOCC1)c1ccccc1 (stereo not drawn) [Example 24[A], 3-(3-Morpholino-1-phenylpropyl)-1H-2,3-benzothiazin-4(3H)-one 2,2-Dioxide Fumarate]",62,,Period of Contraction Inhibition ([1]; 12 mg/kg i.v.): 5.6 min
"CS(=O)(=O)O.O=C1c2ccccc2CS(=O)(=O)N1C(CCN1CCSCC1)c1ccccc1 (stereo not drawn) [Example 26, 3-(1-Phenyl-3-thiomorpholinopropyl)-1H-2,3-benzothiazin-4(3H)-one 2,2-Dioxide Mesylate]",37,,Period of Contraction Inhibition ([1]; 4 mg/kg i.v.): 7.3 min
"N#CC1(c2ccccc2)CCN(CCCN2CC(=O)c3ccccc3S2(=O)=O)CC1.O=C(O)/C=C/C(=O)O [Example 32, 2-[3-(4-Cyano-4-phenylpiperidino)propyl]-2H-1,2-benzothiazin-4(3H)-one 1,1-Dioxide Fumarate]",,6,
"N#CC1(c2ccccc2)CCN(CCC(c2ccccc2)N2CC(=O)c3ccccc3S2(=O)=O)CC1.O=C(O)/C=C/C(=O)O (stereo not drawn) [Example 34, 2-[3-(4-Cyano-4-phenylpiperidino)-1-phenylpropyl]-2H-1,2-benzothiazin-4(3H)-one 1,1-Dioxide Fumarate]",,3,
"O=C1c2ccccc2S(=O)(=O)N1C(CCN1CCSCC1)c1ccccc1 (stereo not drawn) [Example II, 2-(1-Phenyl-3-thiomorpholino)propyl-1,2-benzisothiazol-3(2H)-one 1,1-Dioxide Fumarate]",47,,Period of Contraction Inhibition ([1]; 5 mg/kg i.v.): 3.8 min
"O=C1c2ccccc2S(=O)(=O)N1C(CCN1CCOCC1)c1ccccc1 (stereo not drawn) [Example IX, 2-(3-Morpholino-1-pheny)propyl-1,2-benzisothiazol-3(2H)-one 1,1-Dioxide Fumarate]",48,,Period of Contraction Inhibition ([1]; 5 mg/kg i.v.): 10.7 min
"CC(=O)N1CCN(CCC(c2ccccc2)N2C(=O)c3ccccc3S2(=O)=O)CC1 (stereo not drawn) [Example XI, 2-[3-(4-Acetyl-1-piperazinyl)-1-pheny]propyl-1,2-benzisothiazol-3(2H)-one 1,1-Dioxide Fumarate]",170,,Period of Contraction Inhibition ([1]; 17 mg/kg i.v.): 6.0 min
"O=C1c2ccccc2S(=O)(=O)N1C(CCN1CCN(c2ncccn2)CC1)c1ccccc1 (stereo not drawn) [Example XII, 2-[1-Phenyl-3-[4-(2-pyrimidinyl)-1-piperazinyl]propyl-1,2-benzisothiazol-3(2H)-one 1,1-Dioxide Hydrochloride]",> 200,,Period of Contraction Inhibition ([1]; 20 mg/kg i.v.): 3.5 min

# Reference: patent US5773437A, “Alkylenediamine derivatives” (Nippon Chemiphar Co., Ltd., priority 1994, dated 1998)
